US9409892B2, “4-hydroxy-isoquinoline compounds as HIF hydroxylase inhibitors” (FIBROGEN, INC., priority 2012, dated 2016)

How the values were obtained:
[1] = molecular target: PHD1 (EGLN2) (Homo sapiens (Human), UniProt Q96KS0); assay: HIF-PH assay (14CO2 capture), PHD1 enzyme inhibition; type: biochemical; conditions: for IC50: individual measurement, read-out: IC50 (μM) PHD1
Text: (§1) Ketoglutaric acid α-[1-^14C]-sodium salt, alpha-ketoglutaric acid sodium salt, and HPLC purified peptide may be obtained from commercial sources, e.g., Perkin-Elmer (Wellesley Mass.), Sigma-Aldrich, and SynPep Corp. (Dublin Calif.), respectively. Peptides for use in the assay may be fragments of HIFα as described above or as disclosed in International Publication WO 2005/118836, incorporated by reference herein. HIF-pH, e.g., PHD1 (EGLN2) or PHD2 (EGLN1), can be expressed in, e.g., insect Hi5 cells, and partially purified, e.g., through a SP ion exchange chromatography column. Enzyme activity is determined by capturing ^14CO2 using an assay described by Kivirikko and Myllyla (1982, Methods Enzymol. 82:245-304). Assay reactions contain 50 mM HEPES (pH 7.4), 100 μM α-ketoglutaric acid sodium salt, 0.30 mCi/mL ketoglutaric acid α-[1-^14C]-sodium salt, 40 μM FeSO4, 1 mM ascorbate, 1541.8 units/mL Catalase, with or without 50 μM peptide substrate and various concentrations of compound of the invention. Reactions are initiated by addition of HIF-PH enzyme.
(§2) The peptide-dependent percent turnover is calculated by subtracting percent turnover in the absence of peptide from percent turnover in the presence of substrate peptide. Percent inhibition and IC50 are calculated using peptide-dependent percent turnover at given inhibitor concentrations. Calculation of IC50 values for each inhibitor is conducted using GraFit software (Erithacus Software Ltd., Surrey UK).
(§3) The PHD2/PHD1 is the ratio of the IC50 of the compound for each enzyme.

[2] = molecular target: PHD2 (EGLN1) (Homo sapiens (Human), UniProt Q9GZT9); assay: HIF-PH assay (14CO2 capture), PHD2 enzyme inhibition; type: biochemical; conditions: Table 1; individual measurement; read-out: IC50 (μM) PHD2
Text: as §1, §2, §3

[3] = Table 1, ratio of the IC50 of the compound for each enzyme
[4] = Table 2 comparative data, IC50 PHD2/IC50 PHD1

PHD1 (EGLN2), sequence (Q96KS0 whole entry, the tested form may be a part): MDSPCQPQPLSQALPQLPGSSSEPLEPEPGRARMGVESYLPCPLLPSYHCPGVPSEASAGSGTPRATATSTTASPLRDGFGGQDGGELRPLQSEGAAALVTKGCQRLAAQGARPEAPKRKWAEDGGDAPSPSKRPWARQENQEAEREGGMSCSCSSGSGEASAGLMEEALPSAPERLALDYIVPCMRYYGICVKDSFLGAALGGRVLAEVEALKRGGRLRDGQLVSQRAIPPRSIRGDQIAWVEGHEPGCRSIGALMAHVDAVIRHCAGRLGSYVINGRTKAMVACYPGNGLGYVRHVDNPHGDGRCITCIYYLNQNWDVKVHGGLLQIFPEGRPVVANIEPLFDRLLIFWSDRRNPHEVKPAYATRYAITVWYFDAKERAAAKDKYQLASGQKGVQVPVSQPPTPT
PHD2 (EGLN1), sequence (Q9GZT9 whole entry): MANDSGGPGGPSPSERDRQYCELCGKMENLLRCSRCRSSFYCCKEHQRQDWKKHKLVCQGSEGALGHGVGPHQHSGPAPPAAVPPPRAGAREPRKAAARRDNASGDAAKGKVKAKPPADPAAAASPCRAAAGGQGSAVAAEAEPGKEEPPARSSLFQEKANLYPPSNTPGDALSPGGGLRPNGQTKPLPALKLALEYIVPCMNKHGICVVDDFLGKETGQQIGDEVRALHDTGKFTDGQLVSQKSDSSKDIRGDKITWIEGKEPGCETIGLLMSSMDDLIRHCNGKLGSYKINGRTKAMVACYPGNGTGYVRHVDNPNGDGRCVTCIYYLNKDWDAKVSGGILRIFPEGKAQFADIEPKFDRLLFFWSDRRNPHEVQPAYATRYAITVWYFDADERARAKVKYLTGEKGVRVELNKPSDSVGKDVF

| IC50 ([1]; Table 1) | PHD2/PHD1 [1, 3] | IC50 [2] | PHD2/PHD1 [1, 4] | SMILES |
| --- | --- | --- | --- | --- |
| 4.43 µM | 7 | 29.9 µM | – | CCCC(CCC)(CNC(=O)c1nc(C#N)c2cc(Oc3ccccc3)ccc2c1O)C(=O)O [Compound 18, 2-{[(1-Cyano-4-hydroxy-7-phenoxy-isoquinoline-3-carbonyl)-amino]-methyl}-2-propyl-pentanoic acid] |
| – | – | – | 3 | O=C(O)CNC(=O)c1ncc2cc(Oc3cccnc3)ccc2c1O [U.S. Pat. No. 7,323,475; Example D-67, 2-{[4-Hydroxy-7-(pyridin-3-yloxy)-isoquinoline-3-carbonyl]-amino}-acetic acid, reference compound] |
| 0.35 µM | 8 | 2.88 µM | – | O=C(O)CCNC(=O)c1ncc2cc(S(=O)(=O)C3CCCCC3)ccc2c1O [Compound 135, 3-[(7-Cyclohexanesulfonyl-4-hydroxy-isoquinoline-3-carbonyl)-amino]-propionic acid] |
| 7.21 µM | 28 | 200 µM | – | CC(C)(CNC(=O)c1nc(-c2cncc(F)c2)c2cc(Oc3ccccc3)ccc2c1O)C(=O)O [Compound 136, 3-{[1-(5-Fluoro-pyridin-3-yl)-4-hydroxy-7-phenoxy-isoquinoline-3-carbonyl]-amino}-2,2-dimethyl-propionic acid] |
| 0.26 µM | 7 | 1.8 µM | – | N#Cc1nc(C(=O)NCCC(=O)C(=O)O)c(O)c2ccc(Oc3ccccc3)cc12 [Compound 56, 4-(1-Cyano-4-hydroxy-7-phenoxyisoquinoline-3-carboxamido)-2-oxobutanoic acid] |
| 27.9 µM | 6 | 182 µM | – | N#Cc1nc(C(=O)N[C@H]2CCCC[C@H]2C(=O)O)c(O)c2ccc(Oc3ccccc3)cc12 (relative stereo) [Compound 32, cis-2-(1-Cyano-4-hydroxy-7-phenoxyisoquinoline-3-carboxamido)cyclohexanecarboxylic acid] |
| 0.22 µM | 8 | 1.73 µM | – | CC(C)(CNC(=O)c1nc(C#N)c2cc(Oc3cccc4ccccc34)ccc2c1O)C(=O)O [Compound 43, 3-(1-Cyano-4-hydroxy-7-(naphthalen-1-yloxy)isoquinoline-3-carboxamido)-2,2-dimethylpropanoic acid] |
| 5.19 µM | 9 | 45.4 µM | – | N#Cc1nc(C(=O)NCC[C@@H](N)C(=O)O)c(O)c2ccc(Oc3ccccc3)cc12 [Compound 50, (R)-2-Amino-4-(1-cyano-4-hydroxy-7-phenoxyisoquinoline-3-carboxamido)butanoic acid] |
| 2.27 µM | – | – | – | N#Cc1nc(C(=O)N[C@@H](CC(=O)O)Cc2ccccc2)c(O)c2ccc(Oc3ccccc3)cc12 [Compound 68, (R)-3-[(1-Cyano-4-hydroxy-7-phenoxy-isoquinoline-3-carbonyl)-amino]-4-phenyl-butyric acid] |
| – | – | – | 1.5 | O=C(O)CNC(=O)c1ncc2cc(Oc3ccccc3)ccc2c1O [U.S. Pat. No. 7,323,475; Example D-7, 2-[(4-Hydroxy-7-phenoxy-isoquinoline-3-carbonyl)-amino]-acetic acid, reference compound] |
| – | 23 | – | – | CC(C)(CC(=O)O)NC(=O)c1nc(C#N)c2cc(Oc3ccccc3)ccc2c1O [Compound 82, 3-[(1-Cyano-4-hydroxy-7-phenoxy-isoquinoline-3-carbonyl)-amino]-3-methyl-butyric acid] |
| 3.43 µM | – | – | – | N#Cc1nc(C(=O)N[C@H](CC(=O)O)Cc2ccccc2)c(O)c2ccc(Oc3ccccc3)cc12 [Compound 67, (S)-3-[(1-Cyano-4-hydroxy-7-phenoxy-isoquinoline-3-carbonyl)-amino]-4-phenyl-butyric acid] |
| – | – | – | 0.4 | N#Cc1nc(C(=O)NCC(=O)O)c(O)c2ccc(Oc3ccccc3)cc12 [U.S. Pat. No. 7,928,120; Example 3, 2-[(1-Cyano-4-hydroxy-7-phenoxy-isoquinoline-3-carbonyl)-amino]-acetic acid, reference compound] |
